pIC50: −log10 of the molar value.
Tests used:
Acyl-CoA desaturase 1 = biological target: T1, Acyl-CoA desaturase 1 (Rattus norvegicus, UniProt P07308); assay: Inhibition of rat SCD1
T1 sequence (P07308 whole entry): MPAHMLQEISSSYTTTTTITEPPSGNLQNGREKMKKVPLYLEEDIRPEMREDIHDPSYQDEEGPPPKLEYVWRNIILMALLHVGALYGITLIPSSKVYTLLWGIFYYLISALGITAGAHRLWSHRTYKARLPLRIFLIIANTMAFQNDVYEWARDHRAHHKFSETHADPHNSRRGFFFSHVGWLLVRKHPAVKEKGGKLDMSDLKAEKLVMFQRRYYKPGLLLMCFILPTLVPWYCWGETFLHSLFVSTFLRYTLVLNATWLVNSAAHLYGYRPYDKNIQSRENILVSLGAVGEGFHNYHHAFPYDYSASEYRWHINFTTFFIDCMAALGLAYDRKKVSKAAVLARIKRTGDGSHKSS

[1] = biological target: T2, Stearoyl-CoA desaturase 5 (Homo sapiens, UniProt Q86SK9); assay: Inhibition of human SCD5
T2 sequence (Q86SK9 whole entry): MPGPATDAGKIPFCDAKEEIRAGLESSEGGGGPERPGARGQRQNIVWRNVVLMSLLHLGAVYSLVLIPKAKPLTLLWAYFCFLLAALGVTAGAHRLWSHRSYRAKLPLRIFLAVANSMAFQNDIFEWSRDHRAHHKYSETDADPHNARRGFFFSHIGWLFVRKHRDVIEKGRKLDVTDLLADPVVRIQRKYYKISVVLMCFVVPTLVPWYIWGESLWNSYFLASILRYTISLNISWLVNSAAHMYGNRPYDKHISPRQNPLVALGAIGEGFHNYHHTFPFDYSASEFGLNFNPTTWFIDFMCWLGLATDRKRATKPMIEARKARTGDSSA

Stearoyl-CoA desaturase = biological target: T3, Stearoyl-CoA desaturase (Homo sapiens, UniProt O00767); assay: Inhibition of human SCD1
T3 sequence (O00767 whole entry): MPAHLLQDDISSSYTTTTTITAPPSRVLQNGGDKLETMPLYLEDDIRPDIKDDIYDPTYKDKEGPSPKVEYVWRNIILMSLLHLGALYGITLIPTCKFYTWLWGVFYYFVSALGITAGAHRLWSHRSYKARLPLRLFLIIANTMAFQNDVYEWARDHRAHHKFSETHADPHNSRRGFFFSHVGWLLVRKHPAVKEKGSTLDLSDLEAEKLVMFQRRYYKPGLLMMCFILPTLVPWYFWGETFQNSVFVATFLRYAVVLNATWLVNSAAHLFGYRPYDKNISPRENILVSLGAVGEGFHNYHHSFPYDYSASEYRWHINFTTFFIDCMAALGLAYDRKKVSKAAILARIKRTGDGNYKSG

[2] = Plasma clearance in C57BL/6 mouse at 10 mg/kg, po or 2 mg/kg, iv; format: ADME, organism-based, C57BL6
Mus musculus [3] = assay: Inhibition of SCD activity in po dosed high sucrose/fat free diet fed C57BL/6 mouse assessed as reduction in conversion of [14C]stearic acid to [14C]oleic acid; format: functional, organism-based; details: C57BL6
[4] = Drug level in high sucrose/fat free diet fed C57BL/6 mouse plasma at 100 mg/kg, po after 3 hrs post dose; format: ADME, organism-based, C57BL6; parameters: dose 100 mg/kg, route oral
[5] = Oral bioavailability in Beagle dog at 2 mg/kg, po; format: ADME, organism-based, Canis lupus familiaris; details: in vivo
Mus musculus [6] = assay: Inhibition of SCD activity in high sucrose/fat free diet fed C57BL/6 mouse assessed as reduction in conversion of [14C]stearic acid to [14C]oleic acid at 100 mg/kg, po; format: functional; details: C57BL6
[7] = biological target: Acyl-CoA (8-3)-desaturase (Homo sapiens, UniProt O60427); assay: Inhibition of Delta(5) fatty acid desaturase in human HepG2 cells; format: cell-based
Acyl-CoA (8-3)-desaturase (Homo sapiens, UniProt O60427), sequence (O60427 whole entry): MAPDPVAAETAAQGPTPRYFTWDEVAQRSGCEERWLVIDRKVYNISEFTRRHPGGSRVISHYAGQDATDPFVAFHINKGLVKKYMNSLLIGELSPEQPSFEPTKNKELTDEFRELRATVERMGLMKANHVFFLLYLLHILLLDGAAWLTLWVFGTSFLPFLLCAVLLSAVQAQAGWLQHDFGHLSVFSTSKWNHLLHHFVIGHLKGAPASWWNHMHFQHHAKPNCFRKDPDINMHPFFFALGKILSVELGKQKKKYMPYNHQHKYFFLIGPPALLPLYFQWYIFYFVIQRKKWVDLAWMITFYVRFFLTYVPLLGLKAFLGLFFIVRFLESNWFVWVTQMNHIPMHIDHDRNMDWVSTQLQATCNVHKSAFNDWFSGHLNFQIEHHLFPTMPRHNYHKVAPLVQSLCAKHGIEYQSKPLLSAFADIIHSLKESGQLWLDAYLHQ

[8] = AUC in Beagle dog plasma at 2 mg/kg, po or 0.5 mg/kg, iv; format: ADME, organism-based, Canis lupus familiaris
[9] = Volume of distribution at steady state in C57BL/6 mouse at 10 mg/kg, po or 2 mg/kg, iv; format: ADME, organism-based, C57BL6; details: in vivo, read-out: Vdss
[10] = Drug level in high sucrose/fat free diet fed C57BL/6 mouse plasma at 30 mg/kg, po after 3 hrs post dose; format: ADME, organism-based, C57BL6; parameters: dose 30 mg/kg, route oral
[11] = Drug level in high sucrose/fat free diet fed C57BL/6 mouse liver at 30 mg/kg, po after 3 hrs post dose; format: ADME, organism-based, C57BL6; parameters: dose 30 mg/kg, route oral; details: read-out: Drug uptake
[12] = Half life in Beagle dog at 2 mg/kg, po or 0.5 mg/kg, iv; format: ADME, organism-based, Canis lupus familiaris; details: in vivo
[13] = biological target: T4, Acyl-CoA (8-3)-desaturase (Rattus norvegicus, UniProt Q920R3); assay: Inhibition of rat Delta(5) fatty acid desaturase by cell based assay
T4 sequence (Q920R3 whole entry): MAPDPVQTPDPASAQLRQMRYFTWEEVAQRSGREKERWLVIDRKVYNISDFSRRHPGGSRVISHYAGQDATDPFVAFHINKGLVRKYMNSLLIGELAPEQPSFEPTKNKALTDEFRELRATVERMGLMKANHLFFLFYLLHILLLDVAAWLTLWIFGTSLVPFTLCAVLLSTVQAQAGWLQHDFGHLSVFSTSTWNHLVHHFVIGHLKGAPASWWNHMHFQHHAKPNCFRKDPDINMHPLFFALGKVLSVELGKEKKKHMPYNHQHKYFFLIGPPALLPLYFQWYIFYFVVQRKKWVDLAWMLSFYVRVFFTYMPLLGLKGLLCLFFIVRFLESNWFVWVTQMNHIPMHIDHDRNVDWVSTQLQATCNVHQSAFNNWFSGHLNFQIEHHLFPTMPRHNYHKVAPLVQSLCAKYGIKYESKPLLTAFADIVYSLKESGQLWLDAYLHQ

[14] = biological target: T4, Acyl-CoA (8-3)-desaturase; assay: Inhibition of Delta(5) fatty acid desaturase in freshly isolated rat hepatocytes; format: cell-based, Hepatocyte
[15] = Oral bioavailability in C57BL/6 mouse at 10 mg/kg, po; format: ADME, organism-based, C57BL6; details: in vivo
[16] = AUC in C57BL/6 mouse plasma at 10 mg/kg, po or 2 mg/kg, iv; format: ADME, organism-based, C57BL6
[17] = Volume of distribution at steady state in Beagle dog at 2 mg/kg, po or 0.5 mg/kg, iv; format: ADME, organism-based, Canis lupus familiaris; details: in vivo, read-out: Vdss
Mus musculus [18] = assay: Inhibition of SCD activity in high sucrose/fat free diet fed C57BL/6 mouse assessed as reduction in conversion of [14C]stearic acid to [14C]oleic acid at 30 mg/kg, po; format: functional; details: C57BL6
[19] = Plasma clearance in Beagle dog at 2 mg/kg, po or 0.5 mg/kg, iv; format: ADME, organism-based, Canis lupus familiaris
[20] = Drug level in high sucrose/fat free diet fed C57BL/6 mouse liver at 100 mg/kg, po after 3 hrs post dose; format: ADME, organism-based, C57BL6; parameters: dose 100 mg/kg, route oral; details: read-out: Drug uptake
[21] = Terminal half life in C57BL/6 mouse at 10 mg/kg, po or 2 mg/kg, iv; format: ADME, organism-based, C57BL6; details: in vivo, read-out: beta t1/2 (converted)

| Compound | pIC50 (Acyl-CoA desaturase 1) | pIC50 [1] | pIC50 (Stearoyl-CoA desaturase) | also measured |
| --- | --- | --- | --- | --- |
| CS(=O)(=O)c1ccc2nc(-c3ccc(-c4cccnc4)cc3)[nH]c2c1 | 6.37 |  |  |  |
| CS(=O)(=O)c1ccc2nc(-c3ccc(-c4cccc(Cl)c4F)cc3)[nH]c2c1 | 7.02 |  |  |  |
| Cn1c(-c2ccc(-c3ccccc3F)nc2)nc2ccc(S(C)(=O)=O)cc21 | < 4.70 |  |  |  |
| CS(=O)(=O)c1ccc2nc(-c3ccc(-c4ccccn4)cc3)[nH]c2c1 | 5.77 | < 4.70 | 5.75 |  |
| CS(=O)(=O)c1ccc2nc(-c3ccc(-c4ccncc4)cc3)[nH]c2c1 | 5.61 | < 4.70 | 5.37 |  |
| Cc1ccc(-c2ccc(-c3nc4ccc(S(C)(=O)=O)cc4[nH]3)cc2)cc1 | < 4.70 |  |  |  |
| CSc1ccc2nc(-c3ccc(-c4ccccc4F)cc3)[nH]c2c1 | 6.16 |  |  |  |
| CS(=O)(=O)c1ccc2nc(-c3ccc(Br)cc3)[nH]c2c1 | < 4.70 |  |  |  |
| CS(=O)(=O)c1ccc2nc(-c3ccc(-c4ccoc4)cc3)[nH]c2c1 | 6.40 | < 4.70 | 5.77 |  |
| Cc1ccsc1-c1ccc(-c2nc3ccc(S(C)(=O)=O)cc3[nH]2)cc1 | 6.33 |  |  |  |
| CS(=O)(=O)c1ccc2nc(-c3ccc(-c4cccc(O)c4)cc3)[nH]c2c1 | 6.40 | < 4.70 | 6.47 |  |
| CS(=O)(=O)c1ccc2nc(-c3ccc(-c4cc(Cl)ccc4F)cc3)[nH]c2c1 | 6.56 |  |  |  |
| CS(=O)(=O)c1ccc2nc(-c3ccc(-c4ccc(-c5ccccc5)s4)cc3)[nH]c2c1 | < 4.70 |  |  |  |
| Cn1c(-c2ccc(-c3ccccc3F)nc2)nc2cc(S(C)(=O)=O)ccc21 | 5.60 |  |  |  |
| CS(=O)(=O)c1ccc2nc(-c3ccc(-c4ccccc4O)cc3)[nH]c2c1 | 6.47 |  |  |  |
| N#Cc1ccc2nc(-c3ccc(-c4ccccc4F)cc3)[nH]c2c1 | < 4.70 | < 4.70 | < 4.70 |  |
| CS(=O)(=O)c1ccc2nc(-c3ccc(-c4ccccc4)cc3)sc2c1 | < 4.70 |  |  |  |
| CS(=O)(=O)c1ccc2nc(-c3ccc(-c4ccsc4)cc3)[nH]c2c1 | 6.98 |  |  |  |
| CS(=O)(=O)c1ccn2cc(-c3ccc(-c4ccccc4)cc3)nc2c1 | 7.38 | < 4.70 | 7.22 |  |
| C[S+]([O-])c1ccc2nc(-c3ccc(-c4ccccc4F)cc3)[nH]c2c1 (stereo not drawn) | 6.33 | < 4.70 | 7.02 |  |
| CS(=O)(=O)c1ccc2nc(-c3ccc(-c4ccc(F)cc4)cc3)[nH]c2c1 | 7.60 |  |  |  |

| Compound | pIC50 (Acyl-CoA desaturase 1) | pIC50 [1] | pIC50 (Stearoyl-CoA desaturase) | also measured |
| --- | --- | --- | --- | --- |
| CS(=O)(=O)c1ccc2nc(-c3ccc(-c4cccc(F)c4)cc3)[nH]c2c1 | 7.68 | < 4.70 | 7.52 |  |
| Cc1cccc(-c2ccc(-c3nc4ccc(S(C)(=O)=O)cc4[nH]3)cc2)c1 | 6.50 |  |  |  |
| CS(=O)(=O)c1ccc2nc(-c3ccc(-c4ccccc4)cc3)[nH]c2c1 | 7.70 | < 5.00 | 7.62 |  |
| CS(=O)(=O)c1ccc2nc(-c3ccc(-c4ccccc4)cc3)cn2c1 | < 4.70 |  |  |  |
| CN(C)S(=O)(=O)c1ccc2nc(-c3ccc(-c4ccccc4F)cc3)[nH]c2c1 | 6.28 |  |  |  |
| CS(=O)(=O)c1ccc2nc(-c3ccc(-c4cccc(Cl)c4)cc3)[nH]c2c1 | 6.83 | < 5.00 | 7.82 |  |
| Cc1ccccc1-c1ccc(-c2nc3ccc(S(C)(=O)=O)cc3[nH]2)cc1 | 5.41 |  |  |  |
| O=S(=O)(c1ccc2nc(-c3ccc(-c4ccccc4F)cc3)[nH]c2c1)C1CC1 | 6.40 |  |  |  |
| CS(=O)(=O)c1cnc2nc(-c3ccc(-c4ccccc4F)cc3)[nH]c2c1 | 6.81 | < 4.70 |  |  |
| Fc1ccccc1-c1ccc(-c2nc3ccccc3[nH]2)cc1 | < 4.70 |  |  |  |
| CS(=O)(=O)c1ccc2nc(-c3ccc(-c4ccc(O)cc4)cc3)[nH]c2c1 | 6.52 | < 4.70 | 5.63 |  |
| CS(=O)(=O)c1ccc2nc(-c3ccc(-c4cccs4)cc3)[nH]c2c1 | 7.01 | < 4.70 |  |  |
| CS(=O)(=O)c1ccc2nc(-c3ccc(-c4ccccc4F)cn3)[nH]c2c1 | 6.64 |  |  |  |
| CCS(=O)(=O)c1ccc2nc(-c3ccc(-c4ccccc4F)cc3)[nH]c2c1 | 5.90 | < 4.70 | 5.88 |  |
| CS(=O)(=O)c1ccc2nc(-c3ccc(-c4ccccc4F)nc3)[nH]c2c1 | 7.24 | < 4.70 | 7.72 |  |
| NS(=O)(=O)c1ccc2nc(-c3ccc(-c4ccccc4F)cc3)[nH]c2c1 | 6.46 | < 4.70 | 7.13 |  |
| CC(C)(C)c1ccc2nc(-c3ccc(-c4ccccc4F)cc3)[nH]c2c1 | 6.76 | < 4.70 | 6.14 |  |
| CS(=O)(=O)c1ccc2nc(-c3ccc(-c4ccccc4Cl)cc3)[nH]c2c1 | 5.35 | < 4.70 | 6.59 |  |
| CS(=O)(=O)c1ccc2nc(-c3ccc(-c4ccccc4F)cc3)[nH]c2c1 | 7.19 | < 4.70 | 7.57 | clearance [2]: 20 mL/min/kg; inhibition (Mus musculus [3]): Dose-dependent effect; concentration at 3 h [4]: 13.2 µM; bioavailability [5]: 70%; inhibition in vivo at 100 mg/kg (Mus musculus [6]): 78%; pIC50 [7]: 5.88; AUC [8]: 2.4 µM·h; Vd [9]: 2.9 L/kg; concentration at 3 h [10]: 6.5 µM; concentration at 3 h [11]: 10.1 µM; half-life [12]: 1.1 h; pIC50 [13]: < 4.30; pIC50 [14]: 5.29; bioavailability [15]: 39%; AUC [16]: 8 µM·h; Vd [17]: 2 L/kg; inhibition in vivo at 30 mg/kg (Mus musculus [18]): 36%; clearance [19]: 26 mL/min/kg; concentration at 3 h [20]: 31.9 µM; half-life [21]: 35.5 h |
| CS(=O)(=O)c1ccc2nc(-c3ccc(-c4ccc(Cl)cc4)cc3)[nH]c2c1 | < 4.70 |  |  |  |
| CS(=O)(=O)c1ccc2nc(-c3cnc(-c4ccccc4)nc3)[nH]c2c1 | 6.31 |  |  |  |

— ChEMBL document CHEMBL1268980, “2-Aryl benzimidazoles: human SCD1-specific stearoyl coenzyme-A desaturase inhibitors” (Bioorg Med Chem Lett, 2010)
